According to patent US20260374766A1, “METHODS FOR TREATING CANCER” (Antares Therapeutics, Inc., priority 2022, published 2026):
Like-named read-outs stand apart in the source and are kept apart here.

Columns and labels:
[1] = target: T1, p53 Y220C mutant protein (amino acid residues 94-293) (Homo sapiens, UniProt P04637, Y220C); assay: Surface Plasmon Resonance (SPR) assay, Kd_kinetic; format: binding; conditions: read-out: SPR P53 Y220C KD kinetic
T1 construct: p53 Y220C mutant protein (amino acid residues 94-293)
Summary of the method: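 Surface plasmon resonance is run at 16 or 20 °C in 50 mM Tris pH 7.5 containing 100 mM NaCl, 1 mM DTT, 0.01% Brij35, 0.05% Tween-20 and 1% DMSO. Association and dissociation data are fitted to a 1:1 model.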

[2] = target: T1, p53 Y220C mutant protein (amino acid residues 94-293); assay: Thermal Shift Assay (TSA), dTM; format: binding; conditions: for ΔTm at 10 µM: 10 uM compound; for ΔTm at 100 µM: 100 uM compound
Summary of the method: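 Differential scanning fluorimetry with Sypro Orange on 5 μM p53 Y220C residues 94-293, compound tested at 10 μM or 100 μM after 3 hours at 20 °C; buffer 20 mM HEPES, pH7.4, 100 mM NaCl, 1% DMSO.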

[3] = target: p53 Y220C (Homo sapiens, UniProt P04637, Y220C); assay: Luciferase Reporter Assay (Luc), p53 response element, NClH1299 cells with inducible p53 Y220C; format: cell-based; conditions: luciferase reporter, NClH1299 inducible p53 Y220C, 6 hour; for AC50: read-out: Luc P53 Y220C AC50
Summary of the method: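 24 h dox pre-induction (0.5 ug/mL), then 6 h compound; One-Glo luminescent read.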

[4] = test system: NUGC3 p53 Y220C; assay: Cell Proliferation Assay (CellTiter-Glo, CTG), NUGC3 p53 Y220C; format: cell-based; conditions: Homo sapiens, NUGC-3, 120 h, 5 days, CellTiter-Glo
Summary of the method: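 Tet-One inducible p53 Y220C or R273H constructs were stably introduced into NCI-H1299 by lentiviral transduction; NUGC3 was used as is. Cells (250-500 per well) were exposed to compound for 5 days, then CellTiter-Glo was added for 10 min at room temperature and IC50 was calculated from luminescence.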

[5] = test system: H1299 p53 Y220C; assay: Cell Proliferation Assay (CellTiter-Glo, CTG), H1299 p53 Y220C (NClH1299-inducible p53 Y220C); format: cell-based; conditions: Homo sapiens, NCI-H1299, 120 h, 5 days, CellTiter-Glo
Summary of the method: (§1)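 Cells seeded at 250-500 per well and exposed to compound for 5 days. Viability read by CellTiter-Glo luminescence after 10 min at room temperature; IC50 calculated. H1299 lines carry Tet-One inducible p53 mutant constructs introduced by lentiviral transduction.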

[6] = test system: H1299 p53 R273H; assay: Cell Proliferation Assay (CellTiter-Glo, CTG), H1299 p53 R273H (NClH1299-inducible p53 R273H); format: cell-based; conditions: Homo sapiens, NCI-H1299, 120 h, 5 days, CellTiter-Glo
Summary of the method: as §1

[7] = p53 Y220C, read-out: TSA P53 Y220C dTM
[8] = NClH1299-inducible p53 Y220C cells
[9] = NClH1299-inducible p53 R273H cells
[10] = thermal shift, read-out: TSA P53 Y220C dTM (100 uM)
[11] = 10 uM tool compound as positive control
[12] = thermal shift, read-out: TSA P53 Y220C dTM (10 uM)

SMILES | Kd ([1]; SPR, p53 Y220C) [nM] | ΔTm at 10 µM [2, 7] [°C] | AC50 ([3]; AC50) [nM] | Emax ([3]; Emax) [%] | IC50 ([4]; NUGC3 cells) [nM] | IC50 [5, 8] [nM] | IC50 [6, 9] [nM] | Kd ([1]; SPR, kinetic KD, p53 Y220C) [nM] | ΔTm at 100 µM [2, 10] [°C] | Emax [3, 11] [%] | AC50 [3] [nM] | IC50 ([4]; NUGC3 p53 Y220C) [nM] | IC50 ([5]; H1299 p53 Y220C) [nM] | IC50 ([6]; H1299 p53 R273H) [nM] | ΔTm at 10 µM [2, 12] [°C] | Kd [1] [nM] | ΔTm at 100 µM [2, 7] [°C]
COc1cc(S(C)(=O)=O)ccc1NCC#Cc1cc2c(N[C@@H]3CN(C)C[C@@H]3F)cccn2c1SC(F)(F)F [Example 339] | < 10 | ≥ 10 | < 750 | 80 to 90 | < 750 | < 750 | 5000 to 8000 | – | – | – | – | – | – | – | – | – | –
COCCN1CCC(Nc2cccn3c(CC(F)(F)F)c(C#CCNc4ccc(S(C)(=O)=O)cc4OC)nc23)CC1 [Example 113, N-(2-{3-[(4-methanesulfonyl-2-methoxyphenyl)amino]prop-1-yn-1-yl}-3-(2,2,2-trifluoroethyl)imidazo[1,2-a]pyridin-8-yl)-1-(2-methoxyethyl)piperidin-4-amine] | – | – | – | – | – | – | – | 10 to 100 | ≥ 10 | < 70 | 1500 to 3000 | 750 to 1500 | 750 to 1500 | 5000 to 8000 | – | – | –
CCc1cc(C(=O)NC)ccc1NCC#Cc1nc2c(N[C@@H]3CCN(C)C[C@@H]3F)cccn2c1CC(F)(F)F [Example 58, 3-ethyl-4-{[3-(8-{[(3S,4R)-3-fluoro-1-methylpiperidin-4-yl]amino}-3-(2,2,2-trifluoroethyl)imidazo[1,2-a]pyridin-2-yl)prop-2-yn-1-yl]amino}-N-methylbenzamide] | – | – | – | – | – | – | – | < 10 | 5 to 10 | 70 to 80 | > 3000 | > 3000 | > 3000 | ≥ 10000 | – | – | –
CNC(=O)c1cnc(OC)c(NCC#Cc2nn3c(N[C@@H]4CCNC[C@@H]4F)cccc3c2SC(F)(F)F)c1 [Example 270] | < 10 | ≥ 10 | < 750 | 80 to 90 | < 750 | < 750 | < 5000 | – | – | – | – | – | – | – | – | – | –
CNC(=O)c1ccc(NCC#Cc2nc3c(N[C@@H]4CCN(C)C[C@@H]4F)cccn3c2CC(F)(F)F)cc1 [Example 35, 4-{[3-(8-{[(3S,4R)-3-fluoro-1-methylpiperidin-4-yl]amino}-3-(2,2,2-trifluoroethyl)imidazo[1,2-a]pyridin-2-yl)prop-2-yn-1-yl]amino}-N-methylbenzamide] | – | – | – | – | – | – | – | < 10 | 5 to 10 | 70 to 80 | > 3000 | 1500 to 3000 | 1500 to 3000 | ≥ 10000 | – | – | –
CNC(=O)c1cccc(NCC#Cc2nc3c(N[C@@H]4CCN(C)C[C@@H]4F)cccn3c2SC(F)(F)F)n1 [Example 162] | – | – | – | – | – | – | – | < 10 | ≥ 10 | 80 to 90 | < 750 | < 750 | < 750 | ≥ 10000 | ≥ 10 | – | –
COc1ccc(C(=O)N2CCC2)cc1NCC#Cc1nc2c(N[C@@H]3CCN(C)C[C@@H]3F)cccn2c1SC(F)(F)F [Example 144] | – | – | – | – | – | – | – | – | ≥ 10 | 80 to 90 | 750 to 1500 | 750 to 1500 | 1500 to 3000 | ≥ 10000 | 5 to 10 | < 10 | –
CNC(=O)c1ccc(OC)c(NCC#Cc2nc3c(N[C@@H]4CCN(C)C[C@@H]4F)cc(F)cn3c2SC(F)(F)F)c1 [Example 154, 3-{[3-(6-fluoro-8-{[(3S,4R)-3-fluoro-1-methylpiperidin-4-yl]amino}-3-[(trifluoromethyl)sulfanyl]imidazo[1,2-a]pyridin-2-yl)prop-2-yn-1-yl]amino}-4-methoxy-N-methylbenzamide] | – | – | – | – | – | – | – | < 10 | ≥ 10 | 70 to 80 | < 750 | < 750 | < 750 | < 5000 | ≥ 10 | – | –
CNC(=O)c1cnc(OC)c(NCC#Cc2cc3c(N[C@@H]4CCNC[C@@H]4F)nccn3c2SC(F)(F)F)c1 [Example 292] | < 10 | ≥ 10 | < 750 | > 90 | < 750 | < 750 | ≥ 10000 | – | – | – | – | – | – | – | – | – | –
COc1cc(S(C)(=O)=O)ccc1NCC#Cc1nc2c(NC3CCS(=O)(=O)CC3)cccn2c1CC(F)(F)F [Example 4, 4-[(2-{3-[(4-methanesulfonyl-2-methoxyphenyl)amino]prop-1-yn-1-yl}-3-(2,2,2-trifluoroethyl)imidazo[1,2-a]pyridin-8-yl)amino]-1lambda6-thiane-1,1-dione] | – | – | – | – | – | – | – | 10 to 100 | 5 to 10 | < 70 | > 3000 | 1500 to 3000 | > 3000 | ≥ 10000 | – | – | –
CC#Cc1nn2c(N[C@@H]3CCN(C)C[C@@H]3F)cccc2c1CC(F)(F)F [Example 20, (3S,4R)-3-fluoro-1-methyl-N-[2-(prop-1-yn-1-yl)-3-(2,2,2-trifluoroethyl)pyrazolo[1,5-a]pyridin-7-yl]piperidin-4-amine] | – | – | – | – | – | – | – | 10 to 100 | 5 to 10 | < 70 | > 3000 | > 3000 | > 3000 | ≥ 10000 | – | – | –
CNC(=O)c1cnc(OC)c(NCC#Cc2nc3c(N[C@@H]4CCNC[C@@H]4F)cccn3c2SC(F)(F)F)c1 [Example 258] | < 10 | ≥ 10 | < 750 | 70 to 80 | < 750 | < 750 | ≥ 10000 | – | – | – | – | – | – | – | – | – | –
CNC(=O)c1ccc(OC)c(NCC#Cc2cc3c(N[C@@H]4CCN(C5COC5)C[C@@H]4F)nccn3c2SC(F)(F)F)c1 [Example 351] | < 10 | ≥ 10 | < 750 | > 90 | < 750 | < 750 | ≥ 10000 | – | – | – | – | – | – | – | – | – | –
CNC(=O)c1ccc(NCC#Cc2nc3c(N[C@@H]4CCN(C)C4)cccn3c2SC(F)(F)F)c(OC)c1 [Example 242] | < 10 | 5 to 10 | 750 to 1500 | 80 to 90 | < 750 | < 750 | 5000 to 8000 | – | – | – | – | – | – | – | – | – | ≥ 10
CNC(=O)c1cnc(OC)c(NCC#Cc2cc3c(N[C@@H]4CCN(C)C[C@@H]4F)nccn3c2SC(F)(F)F)c1 [Example 255] | < 10 | ≥ 10 | < 750 | > 90 | < 750 | < 750 | 8000 to 10000 | – | – | – | – | – | – | – | – | – | ≥ 10
CNC(=O)c1ccc(NCC#Cc2nc3c(N[C@@H]4CCC(=O)NC4)cccn3c2SC(F)(F)F)c(OC)c1 [Example 182] | – | – | – | – | – | – | – | 10 to 100 | 5 to 10 | 80 to 90 | 1500 to 3000 | 1500 to 3000 | 1500 to 3000 | ≥ 10000 | 5 to 10 | – | –
COc1cc(P(C)(C)=O)ccc1NCC#Cc1cc2c(N[C@@H]3CCN(C)C[C@@H]3F)nccn2c1SC(F)F [Example 257] | < 10 | ≥ 10 | < 750 | 80 to 90 | < 750 | < 750 | ≥ 10000 | – | – | – | – | – | – | – | – | – | –
CNC(=O)c1ccc(NCC#Cc2nn3c(N[C@@H]4CCN(C)C[C@@H]4F)cccc3c2SC(F)(F)F)c(OC)c1 [Example 223, 4-{[3-(7-{[(3S,4R)-3-fluoro-1-methylpiperidin-4-yl]amino}-3-[(trifluoromethyl)sulfanyl]pyrazolo[1,5-a]pyridin-2-yl)prop-2-yn-1-yl]amino}-3-methoxy-N-methylbenzamide] | < 10 | ≥ 10 | < 750 | 80 to 90 | < 750 | < 750 | ≥ 10000 | – | – | – | – | – | – | – | – | – | ≥ 10
CNC(=O)c1ccc(NCC#Cc2cc3c(N[C@@H]4CCNC[C@@H]4F)cccn3c2SC(F)(F)F)c(OC)c1 [Example 354] | < 10 | ≥ 10 | < 750 | > 90 | < 750 | < 750 | 5000 to 8000 | – | – | – | – | – | – | – | – | – | –
